Tested on: Two-spotted spider mites
Assay: Miticidal test on two-spotted spider mites
Assay type: in vivo, Tetranychus urticae Koch
Conditions: Tetranychus urticae, 48 h, 2 days after spraying, read-out: Mortality rate
Description: Two-spotted spider mites from the Nagano prefecture, which are poorly sensitive to chemicals, were used as mite specimens. Preparation A and Preparation B were used as chemical specimens.
A plastic cup (trade name: KP-120, manufactured by Kohnoike plastic Co., Ltd.) was filled with tap water, and the plastic cup was covered with a lid having an incision therein. A piece of non-woven fabric (4.5×5.5 cm) was cut for about 4 cm parallel to its longer side 1 cm from the edge. The portion hanging loose was suspended inside the plastic cup through the incision. A kidney bean leaf (about 3.5×4.5 cm) was placed on the sufficiently soaked, non-woven fabric. Twenty female adults of two-spotted spider mites were released into each cup.
Preparation A and Preparation B each diluted with tap water to specific concentrations were mixed, and the mixture was sprayed in a volume of 2 ml using a spray tower (Potter Spray Tower, manufactured by Burkard Manufacturing Co. Ltd, at a spraying pressure of 5 lb/inch). The kidney bean leaf was placed in a thermostatic chamber having a temperature of 25±2° C. and a humidity of 60%. The numbers of live and dead mites were counted 2 days later. The mortality rate was calculated using the equation provided below.
For comparison, mortality rates were calculated in the same manner as above except that Formulation A and Formulation B each diluted with tap water to specific concentrations were used one without each other. Mortality rate=(1−V/W)×100 where V is the survival rate in the treated area, and W is the survival rate in the untreated area.
Furthermore, the effectiveness (E) anticipated from the miticide of the present invention was calculated using the Colby equation (Weeds 15, 20-22 (1967)) to obtain a mathematical effectiveness (%): E=x+y−(x·y/100) where E is the effectiveness expressed in % anticipated from Compound A and chlorfenapyr when used at concentrations of p and q, respectively; x is the effectiveness of Compound A when used at a concentration of p; and y is the effectiveness of chlorfenapyr when used at a concentration of q.

SMILES	mortality at 12.5 ppm (Compound A 12.5 ppm alone (chlorfenapyr 0 ppm), female adults on kidney bean leaf) [%]	mortality at 25 ppm (Compound A 25 ppm alone (chlorfenapyr 0 ppm)) [%]	mortality at 50 ppm (Compound A 50 ppm alone (chlorfenapyr 0 ppm)) [%]	mortality at 100 ppm (Compound A 100 ppm alone (chlorfenapyr 0 ppm)) [%]	mortality at 200 ppm (Compound A 200 ppm alone (chlorfenapyr 0 ppm)) [%]	mortality at 0.4 ppm (chlorfenapyr 0.4 ppm alone (Compound A 0 ppm)) [%]	mortality at 1 ppm (chlorfenapyr 1 ppm alone (Compound A 0 ppm)) [%]	mortality at 2 ppm (chlorfenapyr 2 ppm alone (Compound A 0 ppm)) [%]	mortality at 5 ppm (chlorfenapyr 5 ppm alone (Compound A 0 ppm)) [%]	mortality at 10 ppm (chlorfenapyr 10 ppm alone (Compound A 0 ppm)) [%]
COCCOC(=O)C(C#N)(C(=O)c1ccccc1C(F)(F)F)c1ccc(C(C)(C)C)cc1 (stereo not shown) [Compound A, methoxyethyl 2-(4-tert-butylphenyl)-2-(2-trifluoromethylbenzoyl)cyanoacetate]	19	45	48	25	66					
CCOCn1c(-c2ccc(Cl)cc2)c(C#N)c(Br)c1C(F)(F)F [chlorfenapyr, 4-bromo-2-(4-chlorophenyl)-1-ethoxymethyl-5-trifluoromethylpyrrole-3-carbonitrile]						0	0	0	0	84
